Measurements as given in BindingDB's records for doi:10.7270/Q2D798VP (Broad Institute, 2009).

Target: T1, Zinc finger protein mex-5 (Caenorhabditis elegans, UniProt Q9XUB2)
T1 sequence (Q9XUB2 whole entry): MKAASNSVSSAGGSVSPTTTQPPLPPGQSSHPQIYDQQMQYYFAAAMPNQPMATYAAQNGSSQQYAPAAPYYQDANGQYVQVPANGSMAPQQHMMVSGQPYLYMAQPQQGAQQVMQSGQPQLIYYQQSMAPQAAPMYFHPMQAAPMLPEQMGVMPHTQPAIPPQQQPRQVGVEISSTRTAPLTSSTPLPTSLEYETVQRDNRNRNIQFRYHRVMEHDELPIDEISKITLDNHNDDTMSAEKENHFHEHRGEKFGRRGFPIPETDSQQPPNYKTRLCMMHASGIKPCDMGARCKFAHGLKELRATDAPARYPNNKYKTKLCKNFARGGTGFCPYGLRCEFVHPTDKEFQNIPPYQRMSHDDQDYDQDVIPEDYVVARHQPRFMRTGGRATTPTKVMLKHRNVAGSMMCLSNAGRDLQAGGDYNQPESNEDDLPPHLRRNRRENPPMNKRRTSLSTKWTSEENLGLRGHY
Assay: potency of MEX-5 RNA-binding blockers – biochemical, C. elegans, fluorescence polarization, dose response (AID 1960)

Row | SMILES | EC50
1 | COc1ccc(C2C(C(=O)c3cccs3)C(=O)C(=O)N2c2nncs2)cc1 (stereo not drawn) | 0.1 µM
2 | COc1ccc(C2C(C(C)=O)=C(C)N=c3sc(=Cc4cc(C)n(C)c4C)c(=O)n32)c(OC)c1 (stereo not drawn) | 21 µM
3 | N#CC1C(=N)OC2=C(C(=O)CC(c3ccccc3)C2)C1c1ccc2c(c1)OCO2 (stereo not drawn) | > 300 µM
4 | Clc1ccc(C2=Nc3ncnn3C(c3ccco3)C2)cc1 (stereo not drawn) | 3.36 µM
5 | Brc1ccc(C2=Nc3ncnn3C(c3ccco3)C2)cc1 (stereo not drawn) | 18.1 µM
6 | CS(=O)(=O)Nc1nc2n(n1)C(c1ccccc1)CC(c1ccc(Br)cc1)=N2 (stereo not drawn) | 6.39 µM
7 | COc1ccccc1-n1c(O)c2n(-c3ccc(C)cc3)[nH]c(C(=O)c3ccccc3)c-2c1=O | 14.3 µM
8 | COc1cc(C2c3c(-c4cccnc4)n[nH]c3OC(=N)C2C#N)cc(Br)c1O (stereo not drawn) | > 300 µM
9 | O=C1N=c2ccccc2=C1NNc1ccc(F)cc1 | > 300 µM
10 | c1ccc(CN=Nc2nc3ccccc3[nH]2)nc1 | 41.7 µM
11 | Cc1c(C(=O)NN=Cc2ccco2)[nH][nH]c1=O | > 300 µM
12 | COC1=CC([N+](=O)[O-])=CC(/C=N/NC(=O)CC#N)C1=O (stereo not drawn) | > 300 µM
13 | Cc1ccc(Cl)c2c1NC(=O)/C2=C1/NC(=S)NC1=O | 0.294 µM
14 | Cc1c(C(=O)O)cccc1-n1c(C)cc(CN=Nc2ccc([N+](=O)[O-])cn2)c1C | 50.2 µM
15 | COc1ccc(OC)c(NC=C2C(=O)NC(=S)N(Cc3ccccc3)C2=O)c1 | > 300 µM
16 | C[C@H]1c2cccc(O)c2C(=O)C2C(=O)[C@]3(O)C(=O)C(C(N)=O)C(=O)[C@@H](N(C)C)[C@@H]3[C@@H](O)[C@@H]21 (stereo partly drawn) | 37.9 µM
17 | COc1cc(C2C3=C(CC(C)(C)CC3=O)OC(=N)C2C#N)cc2c1OCO2 (stereo not drawn) | > 300 µM
18 | N#CC1C(=N)OC2=C(C(=O)CCC2)C1c1ccc2c(c1)OCO2 (stereo not drawn) | > 300 µM
19 | Cc1ccc(Cl)c2c1=NC(=O)C=2NNc1ccccc1 | > 300 µM
20 | COc1cc(C2C3=C(CCCC3=O)OC(=N)C2C#N)cc2c1OCO2 (stereo not drawn) | > 300 µM
21 | Cc1ccc2c(c1)=C(NNc1ccccc1C)C(=O)N=2 | > 300 µM
22 | O=C1NC(=O)N(c2cccc(F)c2)C(=O)C1=Cc1c[nH]c2ccccc12 | 36.6 µM
23 | COc1ccccc1OCC(=O)NN=Cc1c(O)ccc2ccccc12 | 131 µM
24 | N#CCC(=N)C(C#N)C#N [1,1,3-tricyano-2-amino-1-propene] | 169 µM
25 | O=C(NN=CC1=CC(=O)C(=O)CC1)NN=CC1=CC(=O)C(=O)CC1 [1,3-bis[[(Z)-(3-hydroxy-4-oxocyclohexa-2,5-dien-1-ylidene)methyl]amino]urea] | 4.86 µM
26 | CCN(CC)CCN1C(=O)C(=O)C(C(=O)c2cc3cccc(OC)c3o2)C1c1ccc(F)cc1 (stereo not drawn) [1-(2-Diethylamino-ethyl)-5-(4-fluoro-phenyl)-3-hydroxy-4-(7-methoxy-benzofuran-2-carbonyl)-1,5-dihydr o-pyrrol-2-one] | > 300 µM
27 | C=CCOc1cccc(C2C(C(=O)c3ccco3)C(=O)C(=O)N2Cc2ccco2)c1 (stereo not drawn) [1-(2-furanylmethyl)-3-[2-furanyl(oxo)methyl]-4-hydroxy-2-(3-prop-2-enoxyphenyl)-2H-pyrrol-5-one] | > 300 µM

Row | SMILES | EC50
28 | O=C1Nc2ccccc2/C1=N/NC(=S)Nc1ccc(O)cc1 [1-(4-hydroxyphenyl)-3-[(2-oxidanylideneindol-3-yl)amino]thiourea] | 3.98 µM
29 | C=CCOc1ccc(C2C(C(=O)c3cccs3)C(=O)C(=O)N2c2nnc(C)s2)cc1 (stereo not drawn) [1-(5-methyl-1,3,4-thiadiazol-2-yl)-4-oxidanyl-2-(4-prop-2-enoxyphenyl)-3-thiophen-2-ylcarbonyl-2H-pyrrol-5-one] | 3.06 µM
30 | COc1ccc(NC=C2C(=O)NC(=S)N(Cc3ccccc3)C2=O)c(OC)c1 [1-Benzyl-5-[1-(2,4-dimethoxy-phenylamino)-meth-(Z)-ylidene]-2-thioxo-dihydro-pyrimidine-4,6-dione] | > 300 µM
31 | CSc1nncc(C(C)N=Nc2ccccc2)n1 (stereo not drawn) [1-[3-(methylsulfanyl)-1,2,4-triazin-5-yl]ethanone phenylhydrazone] | > 300 µM
32 | C=CCSc1nnc(N2C(=O)C(=O)C(C(=O)c3ccco3)C2c2ccccc2F)s1 (stereo not drawn) [1-[5-(allylthio)-1,3,4-thiadiazol-2-yl]-5-(2-fluorophenyl)-4-(2-furoyl)-3-hydroxy-3-pyrrolin-2-one] | 54.8 µM
33 | C=CCSc1nnc(N2C(=O)C(=O)C(C(=O)c3ccco3)C2c2ccc(F)cc2)s1 (stereo not drawn) [1-[5-(allylthio)-1,3,4-thiadiazol-2-yl]-5-(4-fluorophenyl)-4-(2-furoyl)-3-hydroxy-3-pyrrolin-2-one] | 87.6 µM
34 | CC(C)c1ccc(C2C(C#N)=C3Sc4ccccc4N3C(=N)C2C#N)cc1 (stereo not drawn) [1-amino-3-(4-propan-2-ylphenyl)-3H-pyrido[2,1-b][1,3]benzothiazole-2,4-dicarbonitrile] | 61.3 µM
35 | CC1(C)CC(=O)C2Sc3ccccc3N=C2C1 (stereo not drawn) [2,2-Dimethyl-2,3-dihydro-1H,10H-phenothiazin-4-one] | 59.3 µM
36 | COc1cccc(C2C(C(=O)c3cc4cccc(OC)c4o3)C(=O)C(=O)N2c2cc(C)on2)c1OC (stereo not drawn) [2-(2,3-dimethoxyphenyl)-3-[(7-methoxy-1-benzofuran-2-yl)carbonyl]-1-(5-methyl-1,2-oxazol-3-yl)-4-oxidanyl-2H-pyrrol-5-one] | > 300 µM
37 | COc1ccc(OC)c(C2C(C(=O)c3ccco3)C(=O)C(=O)N2CCN2CCOCC2)c1 (stereo not drawn) [2-(2,5-dimethoxyphenyl)-3-(furan-2-carbonyl)-4-hydroxy-1-(2-morpholin-4-ylethyl)-2H-pyrrol-5-one] | > 300 µM
38 | COc1cccc(C2C3=C(CCCC3=O)OC(=N)C2C#N)c1OC(=O)c1ccco1 (stereo not drawn) [2-(2-amino-3-cyano-5-oxo-5,6,7,8-tetrahydro-4H-chromen-4-yl)-6-methoxyphenyl 2-furoate] | > 300 µM
39 | CC1(C)CC(=O)C2=C(C1)OC(=N)C(C#N)C2c1ccccc1OC(=O)N1CCOCC1 (stereo not drawn) [2-(2-amino-3-cyano-7,7-dimethyl-5-oxo-5,6,7,8-tetrahydro-4H-chromen-4-yl)phenyl morpholine-4-carboxylate] | > 300 µM
40 | CCCSc1nnc(N2C(=O)C(=O)C(C(=O)c3ccco3)C2c2ccccc2F)s1 (stereo not drawn) [2-(2-fluorophenyl)-3-(furan-2-carbonyl)-4-hydroxy-1-(5-propylsulfanyl-1,3,4-thiadiazol-2-yl)-2H-pyrrol-5-one] | > 300 µM
41 | COc1ccc(C2C(C(=O)c3cccs3)C(=O)C(=O)N2c2nnc(C)s2)cc1OC (stereo not drawn) [2-(3,4-dimethoxyphenyl)-1-(5-methyl-1,3,4-thiadiazol-2-yl)-4-oxidanyl-3-thiophen-2-ylcarbonyl-2H-pyrrol-5-one] | 5.19 µM
42 | COc1ccc(C2C(C(=O)c3ccco3)C(=O)C(=O)N2c2nnc(C)s2)cc1OC (stereo not drawn) [2-(3,4-dimethoxyphenyl)-3-(furan-2-carbonyl)-4-hydroxy-1-(5-methyl-1,3,4-thiadiazol-2-yl)-2H-pyrrol-5-one] | 297 µM
43 | Cc1ccc(C(=O)C2C(=O)C(=O)N(Cc3ccco3)C2c2cccc(Br)c2)o1 (stereo not drawn) [2-(3-bromophenyl)-1-(2-furanylmethyl)-4-hydroxy-3-[(5-methyl-2-furanyl)-oxomethyl]-2H-pyrrol-5-one] | 35.6 µM
44 | CCCCOc1cccc(C2C(C(=O)c3ccc(C)o3)C(=O)C(=O)N2c2nnc(C)s2)c1 (stereo not drawn) [2-(3-butoxyphenyl)-3-(5-methylfuran-2-yl)carbonyl-1-(5-methyl-1,3,4-thiadiazol-2-yl)-4-oxidanyl-2H-pyrrol-5-one] | 77.4 µM
45 | CSc1nnc(N2C(=O)C(=O)C(C(=O)c3ccco3)C2c2cccc(Cl)c2)s1 (stereo not drawn) [2-(3-chlorophenyl)-3-(furan-2-carbonyl)-4-hydroxy-1-(5-methylsulfanyl-1,3,4-thiadiazol-2-yl)-2H-pyrrol-5-one] | 14.3 µM
46 | CCOc1cccc(C2C(C(=O)c3ccc(C)o3)C(=O)C(=O)N2c2nccs2)c1 (stereo not drawn) [2-(3-ethoxyphenyl)-3-(5-methylfuran-2-yl)carbonyl-4-oxidanyl-1-(1,3-thiazol-2-yl)-2H-pyrrol-5-one] | 1.27 µM
47 | Cc1cccc(Nc2nc(O)cs2)c1 [2-(3-methylanilino)-1,3-thiazol-4-one] | > 300 µM
48 | COCCNC(=O)Cn1cc(C=C2C(=O)NC(=O)N(c3ccccc3F)C2=O)c2ccccc21 [2-(3-{(E)-[1-(2-fluorophenyl)-2,4,6-trioxotetrahydropyrimidin-5(2H)-ylidene]methyl}-1H-indol-1-yl)-N-(2-methoxyethyl)acetamide] | 8.13 µM
49 | Cc1nnc(N2C(=O)C(=O)C(C(=O)c3ccco3)C2c2ccc(F)cc2)s1 (stereo not drawn) [2-(4-fluorophenyl)-3-(furan-2-carbonyl)-4-hydroxy-1-(5-methyl-1,3,4-thiadiazol-2-yl)-2H-pyrrol-5-one] | 32.9 µM
50 | CSc1nnc(N2C(=O)C(=O)C(C(=O)c3ccco3)C2c2ccc(F)cc2)s1 (stereo not drawn) [2-(4-fluorophenyl)-3-(furan-2-carbonyl)-4-hydroxy-1-(5-methylsulfanyl-1,3,4-thiadiazol-2-yl)-2H-pyrrol-5-one] | 82.8 µM
51 | Cc1[nH]c2ccccc2c1/C=C1\N=C(c2ccc(F)cc2)OC1=O [2-(4-fluorophenyl)-4-[(2-methyl-1H-indol-3-yl)methylene]-1,3-oxazol-5(4H)-one] | 5.53 µM
52 | O=C1c2cccc([N+](=O)[O-])c2C(=O)N1n1c(O)csc1=S [2-(4-keto-2-thioxo-thiazolidin-3-yl)-4-nitro-isoindoline-1,3-quinone] | 24.8 µM
53 | Cc1nnc(N2C(=O)C(=O)C(C(=O)c3ccco3)C2c2ccc(C(C)(C)C)cc2)s1 (stereo not drawn) [2-(4-tert-butylphenyl)-3-(furan-2-carbonyl)-4-hydroxy-1-(5-methyl-1,3,4-thiadiazol-2-yl)-2H-pyrrol-5-one] | 7.86 µM
